Assays:
[1] = target: T1, iNOS (Mus musculus, UniProt P29477); experiment: NO production measured as nitrite by infected C57epi.1 epithelial cells with iNOS inhibitors; format: cell-based, murine
T1 construct: C57epi.1 is a cloned oviduct epithelial cell line derived from a C57BL/6 mouse; endogenous in cells; host or cells: C57epi.1 mouse (C57BL/6) oviduct epithelial cell line, IFN-gamma pretreated and infected with C. muridarum, with or without mouse CD4 T cell clones
Protocol: Referring now to FIG. 19A, C57 epi.1 epithelial cells, untreated (hatched bars) or pretreated with IFN-γ (10 ηg/ml×14 hours) in the absence (black bars) or presence of iNOS inhibitors MLA (gray bars) or NIL (light gray bars),—were infected with C. muridarum (3 IFU/cell). Four hours later, the inocula were removed and monolayers cocilted with and with CD4 T-cell clones uvmo-1, -2, and -3 for an additional 32 hours. Supernatants were collected at 36 hour post infection, 32 hour post T cell coculture, and analyzed for NO production measured as nitrite. […] Also, MLA and NIL were effective inhibitors of NO production, as MLA blocked>90% of IFN-γ-induced NO; NIL blocked ˜60%.
Still referring to FIG. 19A, the iNOS inhibitor MLA blocks infected epithelial nitrite production to the background level of 2 uM even in the presence of exogenous interferon gamma and CD4 T cell clones uvmo-1,-2,-3. Inhibition of iNOS activity induced by interferon gamma, and interferon gamma plus CD4 T cell clones uvmo-1,-2,-3, in infected C57epi.1 murine epithelial cells using the iNOS inhibitors N^G-Monomethyl-L-arginine (MLA) and L-N^6-(1-Iminoethyl)lysine (NIL). iNOS activity was measured as nitrite in 24 h culture supernatants. […] 24 h supernatants from uninfected C57epi.1 murine epithelial cells have nitrite levels>0<1.5 uM.

[2] = test system: C. muridarum; experiment: Control of C. muridarum replication in C57epi.1 epithelial cells (IFU titered on McCoy monolayers); format: cell-based, Chlamydia muridarum
Protocol: To test whether the CD4 clones could control the Chlamydia replication in vitro, C57epi.1 monolayers in 48 well plates were untreated, or treated with IFN-γ (10 ηg/ml) for 14 h prior to infection or at the time of infection with 3 IFU of C. muridarum per cell. After addition of C. muridarum the plates were spun at 1200 rpm (300 g) for 30 minutes. Four hours after infection the inoculum was removed CD4 T cell clones were added in T cell media. 36 h post-infection, wells were scraped, harvested, and stored at −80° C. until C. muridarum titers determined on McCoy monolayers as previously described (Johnson, R. M., 2004). Recombinant murine IFN-γ at all concentrations tested (up to 1000 ρg/ml) had no effect on C. muridarum titrations done on the McCoy monolayers; maximum IFN-γ carryover in dilutions used for quantifying C. muridarum was <50 ρg/ml.
The panel of CD4 T cell clones was tested to determine the ability of specific clones to control C. muridarum replication in C57epi.1 epithelial cells (FIG. 2). Monolayers of C57epi.1 cells in 48 well plates (˜200,000 epithelial cells per well) were untreated or treated with IFN-γ, either 14 h prior to infection or at the time of infection, then infected with C. muridarum. Four hours post-infection the inoculating media was removed and replaced with T cell media containing CD4 T cell clones; 150, 000 T cells were added per well for an effector-to-target ratio of ˜0.75:1. 32 h later the wells were harvested with additional SPG buffer and recovered C. muridarum titered on McCoy monolayers to score replication. […] IFUs recovered from experimental wells were compared with identically treated (untreated or IFN-γ treated) parallel control wells (no T cells) to calculate % control replication. This normalization controls for the difference in C. muridarum replication in the untreated vs. IFN-γ treated C57epi.1 cells.
Referring now to FIG. 12A, the modest inhibitory effect of IFN-γ was reversed by blocking NO production with either MLA or NIL. […] According to FIG. 12B, C57.1epi cells were untreated (hatched bar) or pretreated with IFN-γ (10 ηg/ml×14 hours) in absence (black bar) or presence of MLA (gray bar) or NIL (light gray bar), and then infected with C. muridarum (3 IFU/cell). Wells were harvested at 36 hours postinfection and C. muridarum (IFU) quantified on McCoy monolayers. Comparisons were made to the infected (hatched bar).
Referring now to FIG. 19B, C. muridarum replication in epithelial cells, by an iNOS-independent mechanism, is controlled by IFN-γ-independent CD4 T cell clones. […] Wells were harvested 36 hours post infection and C. muridarum quantified on McCoy monolayers. […]

| Compound | block of IFN-γ-induced NO ([1]; infected C57epi.1 cells, nitrite in supernatants) [%] | effect on the modest inhibitory effect of IFN-γ on C. muridarum replication ([2]; C57epi.1 pretreated with IFN-γ, no T cells) | induction of NO production in C57epi.1 epithelial cells ([1]; IFN-γ 10 ηg/ml × 14 hours, infected, p<0.0001) | C. muridarum replication in control wells (no T cells) ([2]; C57epi.1 pretreated with IFN-γ 14 h prior to infection, pooled means from two experiments) | C. muridarum replication in control wells (no T cells) ([2]; IFN-γ added at the time of infection) | effect on C. muridarum titrations done on McCoy monolayers ([2]; all concentrations tested (up to 1000 ρg/ml)) |
| --- | --- | --- | --- | --- | --- | --- |
| CC(=N)NCCCC[C@H](N)C(=O)O.Cl [NIL, L-N^6-(1-iminoethyl)lysine hydrocholoride] | ~60 | reversed | – | – | – | – |
| IFN-γ: Recombinant murine IFN-γ (R&D Systems) | – | – | roughly 6 fold | 4±2×10^6 IFU/well | 5±1×10^6 IFU/well | no effect |

Reference: patent US9185889B2, “CD4 T-cells and CD8zeta cells involved in mammalian host response to epithelial cell infections and uses thereof” (Indiana University Research and Technology Corporation, priority 2010, dated 2015)
